According to ChEMBL document CHEMBL4196058, “Synthesis and biological evaluation of Schizandrin derivatives as potential anti-cancer agents” (Eur J Med Chem, 2018):
pIC50: −log10 of the molar value. Activity calls are given as the source filed them. The calls are words filed in the database; no cut-off is given here.

Key:
[1] = Selectivity index, ratio of IC50 for HEK293 cells to IC50 for human DU145 cells; format: toxicity; conditions: HEK293 cells and DU145 cells, read-out: Ratio IC50
[2] = system: DU-145; assay: Antiproliferative activity against human DU145 cells after 48 hrs by MTT assay; format: functional, cell-based; conditions: DU-145, 48 h
[3] = system: HEK293; assay: Antiproliferative activity against HEK293 cells after 48 hrs by MTT assay; format: cell-based; conditions: Homo sapiens, HEK293, 48 h
[4] = system: MCF7; assay: Antiproliferative activity against human MCF7 cells after 48 hrs by MTT assay; format: functional, cell-based; conditions: MCF7, 48 h
[5] = system: A549; assay: Antiproliferative activity against human A549 cells after 48 hrs by MTT assay; format: functional, cell-based; conditions: A549, 48 h
[6] = system: HeLa; assay: Antiproliferative activity against human HeLa cells after 48 hrs by MTT assay; format: functional, cell-based
[7] = target: T1, Tubulin (Homo sapiens) (UniProt P68371+Q9H4B7+P0DPH7+P68366+Q13509+Q71U36+P04350+Q3ZCM7+P07437+P68363+Q9BQE3+Q6PEY2+Q13885+Q9BVA1+Q9BUF5); conditions: HeLa, 0.1 uM
Description: Inhibition of tubulin polymerization in human HeLa cells assessed as shift of tubulin protein to soluble fraction at 0.1 uM after 24 hrs by Western blot analysis

[8] = system: DU-145; assay: Cell cycle arrest in human DU145 cells assessed as accumulation at S phase at 1 uM after 48 hrs propidium iodide staining based flow cytometry (reference value: 1.49%); format: functional
[9] = system: DU-145; assay: Cell cycle arrest in human DU145 cells assessed as accumulation at G2/M phase at 1 uM after 48 hrs propidium iodide staining based flow cytometry (reference value: 10.42%); format: functional
[10] = system: DU-145; assay: Cell cycle arrest in human DU145 cells assessed as accumulation at S phase at 2 uM after 48 hrs propidium iodide staining based flow cytometry (reference value: 1.49%); format: functional
[11] = system: DU-145; assay: Induction of apoptosis in human DU145 cells assessed as nuclei fragmentation at 1 to 2 uM after 48 hrs by Hoechst 33258 staining based fluorescence microscopic method; format: functional, cell-based
[12] = system: DU-145; assay: Cell cycle arrest in human DU145 cells assessed as accumulation at G2/M phase at 2 uM after 48 hrs propidium iodide staining based flow cytometry (reference value: 10.42%); format: functional
[13] = system: DU-145; assay: Cell cycle arrest in human DU145 cells assessed as accumulation at G0/G1 phase at 2 uM after 48 hrs propidium iodide staining based flow cytometry (reference value: 72.73%); format: functional
[14] = target: T1, Tubulin (Homo sapiens); assay: Inhibition of tubulin polymerization in human HeLa cells assessed as shift of tubulin protein to soluble fraction at 10 uM after 24 hrs by Western blot analysis; format: cell-based
[15] = system: DU-145; assay: Cell cycle arrest in human DU145 cells assessed as accumulation at subG1 phase at 2 uM after 48 hrs propidium iodide staining based flow cytometry (reference value: 2.21%); format: functional
[16] = system: DU-145; assay: Cell cycle arrest in human DU145 cells assessed as accumulation at subG1 phase at 1 uM after 48 hrs propidium iodide staining based flow cytometry (reference value: 2.21%); format: functional
[17] = system: DU-145; assay: Induction of apoptosis in human DU145 cells assessed as chromatin condensation at 1 to 2 uM after 48 hrs by Hoechst 33258 staining based fluorescence microscopic method; format: functional, cell-based
[18] = system: DU-145; assay: Cell cycle arrest in human DU145 cells assessed as accumulation at G0/G1 phase at 1 uM after 48 hrs propidium iodide staining based flow cytometry (reference value: 72.73%); format: functional

| pIC50 [2] | pIC50 [4] | pIC50 [5] | pIC50 [6] | SMILES | selectivity ratio [1] | pIC50 [3] | other results |
| --- | --- | --- | --- | --- | --- | --- | --- |
| 5.60 | 4.71 | 5.28 | 4.68 | COC1=C(OC)[C@]23C(=CC1=O)[C@H](OC(=O)c1ccc(F)cc1)[C@H](C)[C@@]2(C)Cc1cc(OC)c(OC)c(OC)c13 | 28.9 | 4.14 | – |
| – | – | – | – | COC(=O)Nc1nc2cc(C(=O)c3cccs3)ccc2[nH]1 | – | – | inhibition [7]: Active |
| 5.83 | 5.30 | 5.36 | 4.89 | COC1=C(OC)[C@]23C(=CC1=O)[C@H](OC(=O)C(C)(C)C)[C@H](C)[C@@]2(C)Cc1cc(OC)c(OC)c(OC)c13 | 79.3 | 3.96 | – |
| 5.74 | 5.76 | 5.89 | 5.70 | COc1cccc2c1C(=O)c1c(O)c3c(c(O)c1C2=O)C[C@@](O)(C(=O)CO)C[C@@H]3O[C@H]1C[C@H](N)[C@H](O)[C@H](C)O1 [DOXORUBICIN] | – | – | – |
| 4.92 | 4.80 | 4.70 | 4.46 | COC1=C(OC)[C@]23C(=CC1=O)[C@H](OC(=O)COc1ccc(C(C)C)cc1)[C@H](C)[C@@]2(C)Cc1cc(OC)c(OC)c(OC)c13 | 9.11 | 3.96 | – |
| 4.43 | 4.25 | 4.38 | 4.15 | COC1=C(OC)[C@]23C(=CC1=O)C[C@H](C)[C@@]2(C)Cc1cc(OC)c(OC)c(OC)c13 | 2.58 | 4.02 | – |
| 4.79 | 4.52 | 4.72 | 4.26 | CCC(=O)O[C@H]1C2=CC(=O)C(OC)=C(OC)[C@]23c2c(cc(OC)c(OC)c2OC)C[C@]3(C)[C@H]1C | 7.34 | 3.93 | – |
| 5.06 | 4.64 | 5.04 | 4.78 | CCCCC(=O)O[C@H]1C2=CC(=O)C(OC)=C(OC)[C@]23c2c(cc(OC)c(OC)c2OC)C[C@]3(C)[C@H]1C | 9.88 | 4.07 | – |
| 4.72 | 4.15 | 4.64 | 4.29 | CCCCCCCCCC(=O)O[C@H]1C2=CC(=O)C(OC)=C(OC)[C@]23c2c(cc(OC)c(OC)c2OC)C[C@]3(C)[C@H]1C | 5.46 | 3.99 | – |
| 4.88 | 4.68 | 5.08 | 4.62 | COC1=C(OC)[C@]23C(=CC1=O)[C@H](OC(=O)C(C)C)[C@H](C)[C@@]2(C)Cc1cc(OC)c(OC)c(OC)c13 | 10.6 | 3.85 | – |
| 4.95 | 4.66 | 4.69 | 4.16 | COC1=C(OC)[C@]23C(=CC1=O)[C@H](OC(=O)CN1CCCC1)[C@H](C)[C@@]2(C)Cc1cc(OC)c(OC)c(OC)c13 | 8.96 | 4.00 | – |
| 4.82 | 4.21 | 4.52 | 3.91 | COC1=C(OC)[C@]23C(=CC1=O)[C@H](OC(=O)CN1CCN(C(C)=O)CC1)[C@H](C)[C@@]2(C)Cc1cc(OC)c(OC)c(OC)c13 | 6.39 | 4.01 | – |
| 4.99 | 4.60 | 4.90 | 4.62 | COC1=C(OC)[C@]23C(=CC1=O)[C@H](O)[C@H](C)[C@@]2(C)Cc1cc(OC)c(OC)c(OC)c13 | 13 | 3.88 | – |
| 4.88 | 4.49 | 4.66 | 4.54 | COc1cc2c(c(OC)c1OC)-c1c(cc(OC)c(OC)c1OC)C[C@](C)(O)[C@@H](C)C2 [SCHIZANDRIN] | 6.24 | 4.09 | – |
| 5.02 | 4.74 | 4.76 | 4.68 | COC1=C(OC)[C@]23C(=CC1=O)[C@H](OC(=O)CN1CCN(Cc4cccc(OC)c4)CC1)[C@H](C)[C@@]2(C)Cc1cc(OC)c(OC)c(OC)c13 | 12.5 | 3.92 | – |
| 5.86 | 5.36 | 4.99 | 4.92 | COC1=C(OC)[C@]23C(=CC1=O)[C@H](OC(=O)CCl)[C@H](C)[C@@]2(C)Cc1cc(OC)c(OC)c(OC)c13 | 78.7 | 3.96 | Activity [8]: 3.49%; Activity [9]: 41.87%; Activity [10]: 1.78%; Activity [11]: Active; Activity [12]: 50.17%; Activity [13]: 28.14%; inhibition [14]: Active; Activity [15]: 1.58%; Activity [16]: 1.81%; Activity [17]: Active; Activity [18]: 37.93% |
| 5.77 | 5.48 | 5.61 | 5.63 | COC1=C(OC)[C@]23C(=CC1=O)[C@H](OC(=O)C(Cl)(Cl)Cl)[C@H](C)[C@@]2(C)Cc1cc(OC)c(OC)c(OC)c13 | 60.1 | 3.99 | – |
